A short description of data set [1]: BRlogD chromatographic lipophilicity (XBridge Shield RP18). Format: physicochemical. Conditions: XBridge Shield RP18 HPLC column (130 Å, 5 µm, 5 cm × 4.6 mm); 60% ACN / 40% 20 mM ammonium acetate, pH 7. The method, then: Lipophilicity was assessed using three chromatographic descriptors, each simulating distinct aspects of membrane environments. BRlogD is a surrogate of the octanol/water distribution coefficient (log D oct) reflecting a general partitioning across biological membranes. Log k W ^IAM implements an Immobilized Artificial Membrane (IAM) column which provides a lipophilicity index in an environment resembling the membrane phospholipids. Finally, log k′80 PLRP-S reflects retention in a hydrophobic polymeric column environment, mimicking the nonpolar core of lipid bilayers, and acts as a surrogate for the toluene/water partition coefficient (log D tol). Lipophilicity remained within a moderate range across all systems.
All chromatographic measurements were performed using the Thermo Scientific Inc. HPLC DIONEX Ultimate 3000 connected to an RS diode array and the Chromeleon 7.2.10 software (www.thermofisher.com). 1.5 mL HPLC vials, 9 mm PP screw caps, and high-performance ergonomic single-channel variable volume pipettors from VWR Signature were used. A Eutech pH Meter 2700 was used to regulate the pH of each buffer and sample (www.fishersci.com). For all the chromatographic descriptors, the mobile phase consisted of an acetonitrile solution (ACN) and 20 mM AAB, pH 7. Moreover, 10 μL was set as the volume of injection of compound concentrations ranging from 50 to 100 μg/mL in ACN/buffer mixtures. One mL/min was chosen as the isocratic flow rate and 30 °C as the oven temperature. However, each chromatographic system (RP) had its own conditions:
BRlogD as an analog of log Poct required the use of the XBridge Shield RP18 (130 Å, 5 μm, 5 cm × 4.6 mm) column by Waters (www.waters.com). The eluent was composed of a 60% ACN and 40% 20 mM ammonium acetate buffer (v/v) mixture. The retention time was measured for the analyte and the log k′60 was calculated (capacity factor k′60 = [t R (60% ACN) – t 0]/t 0) and then converted to the corresponding BRlogD value using the equation BRlogD = 3.31x + 2.79. In addition, acetone, caffeine, ibuprofen, lidocaine, phenol, and a mixture of uracile, acetophenone, and toluene were used as gold standards.

Data set [2] can be described thus: In vivo pharmacokinetics in mice (oral bioavailability, clearance). To be noted: for bioavailability: female, BomTac:NMRI-Foxn1nu, mouse, plasma, mice, AUC_DN oral (typically 30 mg/kg) / AUC_DN IV (5 mg/kg) * 100, read-out: F% (oral bioavailability in mice); for Mouse CL (% Qh): mouse clearance as % of hepatic blood flow. The method, then: Bioavailability in mice was determined by comparing plasma exposure after oral administration with plasma exposure after intravenous administration (see Experimental Part). The investigated data set includes PROTACs with very low (F < 1%), low (F < 5%) and medium/high (F > 5%, in bold in Table ) oral bioavailability. Only low-clearance PROTACs were investigated, with clearance of less than 10% of the hepatic blood flow, to avoid extensive hepatic first-pass effect (Mouse CL see Table S2).
The authors confirm that the research in this study complies with all relevant ethical regulations. All animal studies were approved by the internal ethics committee (called “ethics committee”) of Boehringer Ingelheim RCV GmbH & Co KG in the department of Cancer Pharmacology and Disease Positioning. Furthermore, all protocols were approved by the Austrian governmental committee (MA 60 Veterinary office; approval numbers GZ: 903122/2017/21, GZ: 154399/2018/16, GZ: MA 58–670393–2019–18, GZ: MA 58–546776–2022–13). Female BomTac:NMRI-Foxn1nu mice were obtained from Taconic Denmark at an age of 6–8 weeks. After arrival at the local AAALAC accredited animal facility at Boehringer Ingelheim RCV GmbH & Co KG mice were allowed to adjust to housing conditions for at least 5 days before the start of the experiment, i.e. mice in all experiments were 7–9 weeks old. Mice were group-housed under pathogen-free and controlled environmental conditions (21 ± 1.5 °C temperature, 55 ± 10% humidity) and handled according to the institutional, governmental and European Union guidelines (Austrian Animal Protection Laws, GV SOLAS and FELASA). Animal studies were approved as described in the Ethics section. Food and water were provided ad libitum.
All pharmacokinetic studies were conducted with three mice per dose group and testing route. Oral bioavailability was determined by comparing the dose-normalized area under the plasma concentration–time curve (AUC_DN) following oral administration to the AUC_DN after intravenous (IV) administration of the same drug. All oral administrations were conducted with a volume of application of 10 mL/kg, typically at a dose of 30 mg/kg as a solution in a 25% to 40% HP-β-CD at a pH range of 4 to 5. Intravenous administrations were conducted at a dose of 5 mg/kg, with a volume of application of 5 mL/kg in 25% HP-β-CD at a pH of 5. Blood samples were obtained from the vena saphena at five time points after each administration, with the aim of measuring the drug concentration in the plasma. The concentrations of the compound in plasma samples were determined by quantitative HPLC-MS/MS, employing an internal standard. Calibration and quality control samples were prepared using blank plasma from untreated animals. The samples were precipitated with acetonitrile and subsequently injected into an HPLC system (Agilent 1200). The separation was conducted using a gradient of 5 mmol/L ammonium acetate at pH 4.0 and acetonitrile with 0.1% formic acid on a 2.1 mm by 50 mm XBridge BEH C18 reversed-phase column with 2.5 μm particles (Waters). The HPLC was interfaced with an ESI-operated triple quadrupole mass spectrometer (5000 or 6500+ Triple Quad System, SCIEX) operated in multiple reaction monitoring mode. The chromatograms were analyzed using Analyst (SCIEX), and the pharmacokinetic parameters, such as AUC_DN, were calculated using noncompartmental analysis with BI-proprietary software.
The oral bioavailability (F%) was calculated using the following formula: F% = AUC_DN_oral/AUC_DN_IV) * 100.

As usually defined, the chromatographic logD is a lipophilicity value derived from retention on a column. High values mean a more lipophilic compound, low ones a more hydrophilic compound. What is called bioavailability is the share of a dose that reaches the circulation, judged against a reference dose that is usually intravenous. In data set [1], `Cc1ncsc1-c1ccc([C@H](CCCN2CCC(c3ccc4c(c3)n(C3CCCC3)c3nc(=O)c5c(Br)cccc5n43)CC2)NC(=O)[C@@H]2C[C@@H](O)CN2C(=O)[C@@H](NC(=O)C2(F)CC2)C(C)(C)C)cc1` [A3-1] gave a chromatographic logD of 2.29. Also, in data set [2], the bioavailability came out at 0.6% and the “Mouse CL (% Qh)” value was 7.9 % Qh.
For `Cc1ncsc1-c1ccc([C@H](C[C@H](C)CN2CCC(c3ccc4c(c3)n(C3CCCC3)c3nc(=O)c5c(Br)cccc5n43)CC2)NC(=O)[C@@H]2C[C@@H](O)CN2C(=O)[C@@H](NC(=O)C2(F)CC2)C(C)(C)C)cc1` [A3-2] the same measures were 3.29, 5.4% and 3.6 % Qh.
For `Cc1ncsc1-c1ccc([C@H](C[C@@H](C)CN2CCC(c3ccc4c(c3)n(C3CCCC3)c3nc(=O)c5c(Br)cccc5n43)CC2)NC(=O)[C@@H]2C[C@@H](O)CN2C(=O)[C@@H](NC(=O)C2(F)CC2)C(C)(C)C)cc1` [A3-3] the same measures were 3.32, 16.4% and 9.3 % Qh.
For `Cc1ncsc1-c1ccc([C@H](CCCCCN2CCC(c3ccc4c(c3)n(C3CCCC3)c3nc(=O)c5c(Br)cccc5n43)CC2)NC(=O)[C@@H]2C[C@@H](O)CN2C(=O)[C@@H](NC(=O)C2(F)CC2)C(C)(C)C)cc1` [A5-1] the same measures were 2.46, 4.3% and 2.5 % Qh.
Consider `Cc1ncsc1-c1ccc([C@H](CC[C@H](C)CCN2CCC(c3ccc4c(c3)n(C3CCCC3)c3nc(=O)c5c(Br)cccc5n43)CC2)NC(=O)[C@@H]2C[C@@H](O)CN2C(=O)[C@@H](NC(=O)C2(F)CC2)C(C)(C)C)cc1` [A5-2], for which the chromatographic logD in data set [1] was 2.76. Also, in data set [2], the bioavailability worked out at 22.1% and the “Mouse CL (% Qh)” value is 2.3 % Qh.
The like results for `Cc1ncsc1-c1ccc([C@H](CC[C@@H](C)CCN2CCC(c3ccc4c(c3)n(C3CCCC3)c3nc(=O)c5c(Br)cccc5n43)CC2)NC(=O)[C@@H]2C[C@@H](O)CN2C(=O)[C@@H](NC(=O)C2(F)CC2)C(C)(C)C)cc1` [A5-3] were, in that order, 2.8, 31.5% and 3.9 % Qh.
`Cc1ncsc1-c1ccc([C@@H](CC[C@@H](C)CCN2CCC(c3ccc4c(c3)n(C3CCCC3)c3nc(=O)c5c(Br)cccc5n43)CC2)NC(=O)[C@@H]2C[C@@H](O)CN2C(=O)[C@@H](NC(=O)C2(F)CC2)C(C)(C)C)cc1` [A5-4]: the chromatographic logD in data set [1] is 2.76. Besides, in data set [2], the bioavailability amounted to 1.2% and the “Mouse CL (% Qh)” value is 2.8 % Qh.
Molecule `Cc1ncsc1-c1ccc([C@H](COCCN2CCC(c3ccc4c(c3)n(C3CCCC3)c3nc(=O)c5c(Br)cccc5n43)CC2)NC(=O)[C@@H]2C[C@@H](O)CN2C(=O)[C@@H](NC(=O)C2(F)CC2)C(C)(C)C)cc1` [B-1] displayed a chromatographic logD in data set [1] of 2.64. Besides, in data set [2], the bioavailability worked out at 0.9% and the “Mouse CL (% Qh)” value turned out to be 8.5 % Qh.
For `Cc1ncsc1-c1ccc([C@H](CO[C@H](C)CN2CCC(c3ccc4c(c3)n(C3CCCC3)c3nc(=O)c5c(Br)cccc5n43)CC2)NC(=O)[C@@H]2C[C@@H](O)CN2C(=O)[C@@H](NC(=O)C2(F)CC2)C(C)(C)C)cc1` [B-2] the same measures were 2.64, 1.7% and 5.4 % Qh.
The like results for `Cc1ncsc1-c1ccc([C@H](CO[C@@H](C)CN2CCC(c3ccc4c(c3)n(C3CCCC3)c3nc(=O)c5c(Br)cccc5n43)CC2)NC(=O)[C@@H]2C[C@@H](O)CN2C(=O)[C@@H](NC(=O)C2(F)CC2)C(C)(C)C)cc1` [B-3] were, in that order, 2.58, 2.3% and 7.1 % Qh.
For `Cc1ncsc1-c1ccc([C@H](COC(C)(C)CN2CCC(c3ccc4c(c3)n(C3CCCC3)c3nc(=O)c5c(Br)cccc5n43)CC2)NC(=O)[C@@H]2C[C@@H](O)CN2C(=O)[C@@H](NC(=O)C2(F)CC2)C(C)(C)C)cc1` [B-4] the same measures were 3.25, 90.9% and 6.0 % Qh.

Values taken from PMC12362582, “Linker Methylation as a Strategy to Enhance PROTAC Oral Bioavailability: Insights from Molecular Properties and Conformational Analysis” (Journal of Medicinal Chemistry, 2025).
